This assay has as its target zebrafish WT α1BB-AR (Danio rerio, UniProt Q5U3D9). Kind of assay: cell-based.

zebrafish WT α1BB-AR, sequence (Q5U3D9 1-481): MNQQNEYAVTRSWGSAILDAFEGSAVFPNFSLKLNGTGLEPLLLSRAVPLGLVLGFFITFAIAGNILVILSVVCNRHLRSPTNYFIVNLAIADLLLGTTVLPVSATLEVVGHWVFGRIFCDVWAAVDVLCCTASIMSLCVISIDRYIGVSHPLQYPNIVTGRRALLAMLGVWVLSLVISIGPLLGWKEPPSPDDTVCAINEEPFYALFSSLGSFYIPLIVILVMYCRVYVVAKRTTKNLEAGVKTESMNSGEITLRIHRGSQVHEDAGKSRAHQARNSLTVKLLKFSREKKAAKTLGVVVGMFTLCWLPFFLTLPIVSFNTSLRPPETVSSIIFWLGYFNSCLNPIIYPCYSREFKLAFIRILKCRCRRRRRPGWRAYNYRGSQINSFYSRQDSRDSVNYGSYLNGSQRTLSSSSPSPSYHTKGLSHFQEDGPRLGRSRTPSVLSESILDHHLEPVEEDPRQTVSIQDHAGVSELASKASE

On to `NC[C@H](O)c1ccc(O)c(O)c1` [NE, norepinephrine], for which the EC50 was 407 ± 45 nM.

Source of the values: PMC6882899 (Scientific Reports, 2019).
